In the Kinase Knowledgebase extract (Sharma et al. 2016):

The compounds below were run against MAPK14 (UniProt Q16539) (assay: p38 Inhibition Assay (in Vitro)).
MAPK14, sequence (Q16539 whole entry, looked up): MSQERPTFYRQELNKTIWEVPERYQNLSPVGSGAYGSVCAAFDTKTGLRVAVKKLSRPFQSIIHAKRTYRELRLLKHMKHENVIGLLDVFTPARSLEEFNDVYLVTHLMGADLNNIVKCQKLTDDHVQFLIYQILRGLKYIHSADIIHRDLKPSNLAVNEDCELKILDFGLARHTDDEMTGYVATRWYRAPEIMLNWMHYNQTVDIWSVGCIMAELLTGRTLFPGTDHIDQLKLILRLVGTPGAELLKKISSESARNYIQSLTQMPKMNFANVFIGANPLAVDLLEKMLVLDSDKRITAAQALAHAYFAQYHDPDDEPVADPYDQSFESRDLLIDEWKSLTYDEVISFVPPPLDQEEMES

IC50, > 30 µM:
O=C(NCc1ccc(S(=O)(=O)N2CCCN(C(=O)Cc3ccccc3)CC2)s1)c1ccc(Cl)cc1, NS(=O)(=O)c1cccc(NC2CCN(S(=O)(=O)c3ccc(CNC(=O)c4ccc(Cl)cc4)s3)CC2)c1, O=C(NCc1ccc(S(=O)(=O)N2CCC(Nc3cccc(S(=O)(=O)CCO)c3)CC2)s1)c1ccc(Cl)cc1, O=C(NCc1ccc(S(=O)(=O)N2CCC(n3nnc4ccccc43)CC2)s1)c1ccccc1O, COc1cccc(C(=O)NCc2ccc(S(=O)(=O)N3CCC(Nc4ccccc4[N+](=O)[O-])CC3)s2)c1, O=C(NCc1ccc(S(=O)(=O)N2CCC(n3nnc4ccccc43)CC2)s1)c1ccc(Cl)cc1, COc1cccc(NC2CCN(S(=O)(=O)c3ccc(CNC(=O)c4ccc([N+](=O)[O-])cc4)s3)CC2)c1, COC(=O)c1cccc(NC2CCN(S(=O)(=O)c3ccc(CNC(=O)c4ccc([N+](=O)[O-])cc4)s3)CC2)c1, CCCc1cccc(NC2CCN(S(=O)(=O)c3ccc(CNC(=O)c4ccc(Cl)cc4)s3)CC2)c1, O=C(NCc1ccc(S(=O)(=O)N2CCC(Nc3ccc(Cl)cc3)CC2)s1)c1ccc(Cl)cc1, O=C(NCc1ccc(S(=O)(=O)N2CCC(n3cnc4ccccc43)CC2)s1)c1ccc(Cl)cc1, O=C(NCc1ccc(S(=O)(=O)N2CCC(Nc3ccccc3)CC2)s1)c1ccc(Cl)cc1, O=C(NCc1ccc(S(=O)(=O)N2CCN(C(=O)c3cccc4ccccc34)CC2)s1)c1ccc(Cl)cc1, O=C(NCc1ccc(S(=O)(=O)N2CCC(C(=O)c3ccc(F)cc3F)CC2)s1)c1ccc(Cl)cc1
